This note sets out measurements from paper PMC6385889 (Chemical biology & drug design, 2011).

In series [1] the test system is HIV-1 containing G140S/Q148H integrase. The class given is cell-based. The conditions noted are these: cells infected with mutant vector.
Another series has as its system HIV-1 integrase Y143R. The experiment in a line: In vitro ST assay, Y143R mutant IN. The class given is biochemical. The conditions noted are these: mutant enzyme vs WT enzyme; pre-cleaved DNA, Mg2+.
Series [2] concerns HIV-1 containing wild-type (WT) integrase. The series is described as follows: Antiviral assay, cells infected with HIV-1 vector containing WT integrase. Format: cell-based.
Series [3] has as its system HIV-1 containing N155H integrase. Format: cell-based. The conditions noted are these: cells infected with mutant vector.
For series [4], the system named is HIV-1 containing Y143R integrase. Format: cell-based. The conditions noted are these: cells infected with mutant vector.
A further series concerns HIV-1 integrase N155H. The series is described as follows: In vitro ST assay, N155H mutant IN. The class given is biochemical.
A further series can be described thus: Cellular cytotoxicity. Format: cell-based, human. The conditions noted are these: human, HOS osteosarcoma cells.
The next series deals with HOS cells. The series is described as follows: Cellular cytotoxicity. Format: cell-based, human. The conditions noted are these: HOS cells.
The subject of series [5] is HIV-1 integrase G140S/Q148H. The conditions noted are these: mutant enzyme vs WT enzyme; pre-cleaved DNA, Mg2+.
Setting [6] is: Human immunodeficiency virus 1, read-out: EC50 (WT).

Values joined by “and” are separate entries in the source; they are usually repeats but may differ in a detail not shown here. Identical values can stand only once. Like-named read-outs stand apart in the source and are kept apart here.

For the compound `COC(=O)CCc1c2c(c(O)c(=O)n1C(C)C)C(=O)N(Cc1ccc(F)c(Cl)c1)C2=O` [5e, Methyl 3-(2-(3-chloro-4-fluorobenzyl)-7-hydroxy-5-isopropyl-1,3,6-trioxo-2,3,5,6-tetrahydro-1H-pyrrolo[3,4-c]pyridin-4-yl)propanoate], the “Fold-loss of antiviral potency relative to virus containing WT enzyme, G140S/Q148H” value in series [1] was 2 fold and 2x fold. The “Fold-loss of potency relative to WT, Y143R (ST, in vitro)” value with HIV-1 integrase Y143R was 2 fold and 2x fold. Also, the EC50 (in general, the concentration giving half of the maximal effect) in [2] (setting [6]) is 9.2 ± 1.9 µM. For the same compound, the “Fold-loss of antiviral potency relative to virus containing WT enzyme, N155H” value in series [3] was 3 fold and 3x fold. Besides, the “Fold-loss of antiviral potency relative to virus containing WT enzyme, Y143R” value in series [4] is 2 fold and 2x fold. In the series with HIV-1 integrase N155H (comparison of fold-losses, enzyme assay), the “Fold less sensitive than raltegravir to N155H mutation (in vitro)” value was “approximately 2 fold”. In addition, in the series on HIV-1 integrase N155H (mutant enzyme vs WT enzyme, pre-cleaved DNA, Mg2+), the “Fold-loss of potency relative to WT, N155H (ST, in vitro)” value was 4 fold and 4x fold. Moreover, half-maximal cytotoxicity in “Cellular cytotoxicity” (CC50 at 48 h) was put at 392 ± 66 µM. In the series on HOS cells (ratio of CC50 values), the “Cytotoxicity fold lower than catechol-containing analogue 3” value is given as “approximately 70 fold”. Besides, in [5], the “Fold-loss of potency relative to WT, G140S/Q148H (ST, in vitro)” value was 12 fold and 12x fold.
As for `Cc1nnc(C(=O)NC(C)(C)c2nc(C(=O)NCc3ccc(F)cc3)c(O)c(=O)n2C)o1` [compound 1, raltegravir, reference compound], in [2] (setting [6]), the EC50 is 0.004 ± 0.002 µM. In the series “Cellular cytotoxicity”, the 50% cytotoxic concentration (CC50) – broadly, the concentration at which the toxic effect on the cells reaches its halfway point – at 48 h was > 100 µM.
Regarding `CC(C)n1c(C(=O)N(C)C)c2c(c(O)c1=O)C(=O)N(Cc1ccc(F)c(Cl)c1)CC2` [compound 2, MK-0536, reference compound], the “Fold-loss of antiviral potency relative to virus containing WT enzyme, G140S/Q148H” value in series [1] was found to be 5x fold; in series [1] (listed as MK-0536), 5 fold. For the same compound, the EC50 in series [2] (read-out: EC50 (WT), HIV-1 vector with WT integrase) was 0.017 ± 0.004 µM. In addition, in [3], the “Fold-loss of antiviral potency relative to virus containing WT enzyme, N155H” value is recorded as 1x fold. Also, the “Fold-loss of antiviral potency relative to virus containing WT enzyme, Y143R” value in [4] was 0.4x fold. Also, the CC50 in the series with HOS cells (48 hrs) is > 100 µM.
